Measurements: ChEMBL document CHEMBL1201862, “PubChem BioAssay data set” (2004)
Active and inactive are the calls of the source.

Columns and labels:
[1] = target: Voltage-gated inwardly rectifying potassium channel KCNH2 (Homo sapiens, UniProt Q12809); details: Potency;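 note: confirmatory quantitative high-throughput screen measuring inhibition of hERG channel activity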
[2] = target: T1, Replicative DNA helicase DnaB (Mycobacterium tuberculosis, UniProt P9WMR3); test: DnaB intein splicing inhibitors, dose response, biochemical, cell-free fluorescence (AID 449749); format: functional
T1 sequence (P9WMR3 whole entry): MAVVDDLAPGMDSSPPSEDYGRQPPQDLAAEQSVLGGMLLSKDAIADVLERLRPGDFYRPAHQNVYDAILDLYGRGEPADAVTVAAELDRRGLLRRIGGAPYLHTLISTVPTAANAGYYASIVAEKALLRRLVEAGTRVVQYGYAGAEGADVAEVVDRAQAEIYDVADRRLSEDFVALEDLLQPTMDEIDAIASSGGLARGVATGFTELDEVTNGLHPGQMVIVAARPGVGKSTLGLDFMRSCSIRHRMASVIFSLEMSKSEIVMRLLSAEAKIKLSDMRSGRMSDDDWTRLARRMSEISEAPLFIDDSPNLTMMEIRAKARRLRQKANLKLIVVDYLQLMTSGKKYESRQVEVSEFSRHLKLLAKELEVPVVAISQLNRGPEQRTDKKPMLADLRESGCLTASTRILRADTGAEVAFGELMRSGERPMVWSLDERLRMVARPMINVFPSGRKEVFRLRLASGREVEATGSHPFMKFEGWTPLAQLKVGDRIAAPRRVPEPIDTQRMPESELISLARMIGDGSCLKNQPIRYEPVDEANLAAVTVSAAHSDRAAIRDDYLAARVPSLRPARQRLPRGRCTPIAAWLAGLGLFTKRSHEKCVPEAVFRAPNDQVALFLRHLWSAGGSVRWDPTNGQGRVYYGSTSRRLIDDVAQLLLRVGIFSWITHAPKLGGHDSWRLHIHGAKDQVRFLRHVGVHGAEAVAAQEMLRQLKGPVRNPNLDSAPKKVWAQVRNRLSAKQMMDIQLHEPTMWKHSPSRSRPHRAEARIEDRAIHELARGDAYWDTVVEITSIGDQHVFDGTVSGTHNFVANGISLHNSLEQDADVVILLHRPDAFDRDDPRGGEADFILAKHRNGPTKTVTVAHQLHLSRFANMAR

Vero [3] = test: cells; format: functional, cell-based; details: Chlorocebus sabaeus
Protein RecA = target: T2, Protein RecA (Mycobacterium tuberculosis, UniProt P9WHJ3); test: Fluorescence Cell-Free Homogeneous Dose Retest to Identify Inhibitors of RecA-Intein Splicing Activity. [Related pubchem assays (depositor defined):AID2097, AID2223, AID489010, AID492950]; format: functional
T2 sequence (P9WHJ3 whole entry): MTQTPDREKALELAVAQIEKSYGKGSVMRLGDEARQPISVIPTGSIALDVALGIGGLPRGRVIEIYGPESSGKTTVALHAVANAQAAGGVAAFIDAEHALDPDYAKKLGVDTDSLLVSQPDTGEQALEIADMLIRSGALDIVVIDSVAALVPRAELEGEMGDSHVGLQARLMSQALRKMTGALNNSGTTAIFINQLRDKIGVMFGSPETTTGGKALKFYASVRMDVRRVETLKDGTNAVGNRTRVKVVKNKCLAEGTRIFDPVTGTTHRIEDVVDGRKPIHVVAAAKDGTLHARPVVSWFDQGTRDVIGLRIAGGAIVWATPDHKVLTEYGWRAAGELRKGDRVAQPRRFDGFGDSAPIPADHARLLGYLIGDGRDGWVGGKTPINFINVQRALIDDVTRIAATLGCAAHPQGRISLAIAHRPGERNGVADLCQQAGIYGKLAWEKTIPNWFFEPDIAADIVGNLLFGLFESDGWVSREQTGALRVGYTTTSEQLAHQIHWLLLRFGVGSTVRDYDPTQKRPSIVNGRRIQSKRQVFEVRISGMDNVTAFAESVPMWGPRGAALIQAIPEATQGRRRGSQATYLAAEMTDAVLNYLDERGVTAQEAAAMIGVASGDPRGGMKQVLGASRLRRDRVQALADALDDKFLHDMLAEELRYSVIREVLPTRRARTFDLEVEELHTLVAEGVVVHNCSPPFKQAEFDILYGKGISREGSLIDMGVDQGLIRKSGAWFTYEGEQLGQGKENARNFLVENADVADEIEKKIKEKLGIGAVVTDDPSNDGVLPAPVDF

Vero [4] = test: cells; format: functional; details: Chlorocebus sabaeus
Paired box protein Pax-8 = Paired box protein Pax-8 (Homo sapiens, UniProt Q06710); test: inhibitors of PAX8-driven TPO luciferase reporter, dose response, RMG-I cells, cherry-pick (AID 687027); format: functional, cell-based;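 note: luciferase reporter driven by Pax8 target thyroperoxidase promoter measured by SteadyGlo luminescence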
[5] = non-specific cell cytotoxicity, dose response, cytotoxicity control for PAX8 inhibitor project, plate reader, dry powder samples (AID 743021); format: functional, cell-based
[6] = NIH-3T3 fibroblast cytotoxicity, dose response, cytotoxicity control, cell-based, fluorescence, Alamar Blue, secondary assay (AID 2327); format: functional;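 note: NIH-3T3 mouse fibroblasts cultured with fluconazole at 8 µg/mL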
[7] = tested on: Streptococcus sp. 'group A'; test: growth inhibition of control SK(-) GAS strain, dose response, counter-screen for streptokinase expression inhibitor project, luminescence, kanamycin, BacTiterGlo, confirmation (AID 1900); format: functional, organism-based
[8] = C. albicans growth with fluconazole, confirmation, fluorescence, retest (AID 2467); format: functional, cell-based
[9] = target: T3, Serine/threonine-protein phosphatase (Candida dubliniensis (strain CD36 / CBS 7987 / NCPF 3949 / NRRLY-17841) (Yeast), UniProt B9W6M3); test: calcineurin pathway inhibitors in yeast reporter, dose response, S. cerevisiae, CDRE-lacZ, luminescence, secondary (AID 2388); format: functional, cell-based;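 note: yeast reporter cells carrying a calcineurin-responsive lacZ construct stimulated with calcium chloride; luminescent beta-galactosidase reporter signal in whole cells rather than isolated phosphatase activity; potency for inhibition where a drop in reporter signal means calcineurin blockade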
T3 sequence (B9W6M3 whole entry): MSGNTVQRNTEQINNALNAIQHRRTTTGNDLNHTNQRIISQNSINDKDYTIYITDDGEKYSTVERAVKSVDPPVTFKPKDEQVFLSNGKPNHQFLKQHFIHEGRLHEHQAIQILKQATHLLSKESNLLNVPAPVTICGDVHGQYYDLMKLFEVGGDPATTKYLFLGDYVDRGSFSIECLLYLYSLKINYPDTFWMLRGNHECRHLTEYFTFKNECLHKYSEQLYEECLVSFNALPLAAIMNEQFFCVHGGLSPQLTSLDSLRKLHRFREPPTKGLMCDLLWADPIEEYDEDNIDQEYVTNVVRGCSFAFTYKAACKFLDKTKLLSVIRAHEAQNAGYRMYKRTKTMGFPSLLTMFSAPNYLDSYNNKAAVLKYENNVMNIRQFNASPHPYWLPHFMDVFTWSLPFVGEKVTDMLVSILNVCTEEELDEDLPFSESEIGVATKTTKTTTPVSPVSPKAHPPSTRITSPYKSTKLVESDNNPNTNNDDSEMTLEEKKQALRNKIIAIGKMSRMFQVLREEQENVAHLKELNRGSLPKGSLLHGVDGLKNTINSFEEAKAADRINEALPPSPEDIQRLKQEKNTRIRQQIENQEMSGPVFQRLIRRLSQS

Streptococcus = test: Group A Streptococcus viability loss, dose response, counter-screen for streptokinase expression inhibitor project, luminescence, BacTiterGlo (AID 1915); format: functional, organism-based;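 note: potency for reduction of bacterial viability or growth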
INS1 = test: beta cell apoptosis inhibitors, cytokine rescue, dose response, luminescence, retest (AID 449756); format: functional, cell-based; details: Rattus norvegicus;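 note: cell death triggered by IL-1 beta plus TNF-alpha plus IFN-gamma mixture; protective hits raise ATP signal compared with cytokine alone wells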
[10] = target: ATP-dependent molecular chaperone HSP82 (Candida albicans (strain WO-1) (Yeast), UniProt C4YTQ8); test: loss of DOC-induced GRE-beta-galactosidase reporter signal, dose response, Hsp90 inhibitor project, S. cerevisiae, luminescence (AID 2400); format: functional, cell-based;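 note: beta-galactosidase luminescence from glucocorticoid response element reporter as proxy for Hsp90 function; inhibitor potency where signal loss means Hsp90 inhibition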
[11] = target: Dual specificity tyrosine-phosphorylation-regulated kinase 1A (Rattus norvegicus, UniProt Q63470); format: biochemical, Homo sapiens
Escherichia coli = test: microbe, parasite or virus in culture
Mu-type opioid receptor = Mu-type opioid receptor (Homo sapiens, UniProt P35372); format: functional, cell-based;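 note: U2OS cells with beta-arrestin recruitment to OPRM1 by beta-gal complementation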
[12] = target: 5-hydroxytryptamine receptor 2A (Mus musculus, UniProt P35363); format: functional, cell-based;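 note: CHO-K1 cells with tagged receptor and beta-arrestin; agonist potency measured as compound-induced activation of the receptor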
[13] = target: T4, Heat shock factor protein 1 (Mus musculus, UniProt P38532); test: inhibition of MG132-induced HSE-luciferase signal, confirmation, cell-based, NIH3T3, luminescence, dose retest (AID 2382); format: functional;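 note: NIH3T3 fibroblasts with HSF1-driven luciferase reporter stressed by proteasome inhibitor MG132; luminescence from HSF1-driven luciferase expression after 8 hours of MG132 stress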
T4 sequence (P38532 whole entry): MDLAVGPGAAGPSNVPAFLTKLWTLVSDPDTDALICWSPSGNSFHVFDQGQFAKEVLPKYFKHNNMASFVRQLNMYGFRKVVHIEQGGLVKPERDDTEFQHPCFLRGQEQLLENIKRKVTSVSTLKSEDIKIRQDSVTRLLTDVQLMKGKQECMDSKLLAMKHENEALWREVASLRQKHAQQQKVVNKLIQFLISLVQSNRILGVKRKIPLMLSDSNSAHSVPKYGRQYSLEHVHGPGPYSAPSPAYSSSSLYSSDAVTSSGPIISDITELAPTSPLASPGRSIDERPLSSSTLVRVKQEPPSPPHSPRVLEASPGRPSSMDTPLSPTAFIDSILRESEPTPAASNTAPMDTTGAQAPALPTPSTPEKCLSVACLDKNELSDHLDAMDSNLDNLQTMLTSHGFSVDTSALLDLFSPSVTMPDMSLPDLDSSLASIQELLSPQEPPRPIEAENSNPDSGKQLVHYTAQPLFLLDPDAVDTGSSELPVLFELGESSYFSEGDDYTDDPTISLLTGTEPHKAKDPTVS

Aminopeptidase N = target: T5, Aminopeptidase N (Plasmodium falciparum FcB1/Columbia, UniProt O96935); test: P. falciparum M1AAP inhibitors, biochemical, fluorogenic H-Leu-NHMec substrate, 1536-well (AID 1445); parameters: species or system Plasmodium falciparum 3D7, 3D7
T5 sequence (O96935 whole entry): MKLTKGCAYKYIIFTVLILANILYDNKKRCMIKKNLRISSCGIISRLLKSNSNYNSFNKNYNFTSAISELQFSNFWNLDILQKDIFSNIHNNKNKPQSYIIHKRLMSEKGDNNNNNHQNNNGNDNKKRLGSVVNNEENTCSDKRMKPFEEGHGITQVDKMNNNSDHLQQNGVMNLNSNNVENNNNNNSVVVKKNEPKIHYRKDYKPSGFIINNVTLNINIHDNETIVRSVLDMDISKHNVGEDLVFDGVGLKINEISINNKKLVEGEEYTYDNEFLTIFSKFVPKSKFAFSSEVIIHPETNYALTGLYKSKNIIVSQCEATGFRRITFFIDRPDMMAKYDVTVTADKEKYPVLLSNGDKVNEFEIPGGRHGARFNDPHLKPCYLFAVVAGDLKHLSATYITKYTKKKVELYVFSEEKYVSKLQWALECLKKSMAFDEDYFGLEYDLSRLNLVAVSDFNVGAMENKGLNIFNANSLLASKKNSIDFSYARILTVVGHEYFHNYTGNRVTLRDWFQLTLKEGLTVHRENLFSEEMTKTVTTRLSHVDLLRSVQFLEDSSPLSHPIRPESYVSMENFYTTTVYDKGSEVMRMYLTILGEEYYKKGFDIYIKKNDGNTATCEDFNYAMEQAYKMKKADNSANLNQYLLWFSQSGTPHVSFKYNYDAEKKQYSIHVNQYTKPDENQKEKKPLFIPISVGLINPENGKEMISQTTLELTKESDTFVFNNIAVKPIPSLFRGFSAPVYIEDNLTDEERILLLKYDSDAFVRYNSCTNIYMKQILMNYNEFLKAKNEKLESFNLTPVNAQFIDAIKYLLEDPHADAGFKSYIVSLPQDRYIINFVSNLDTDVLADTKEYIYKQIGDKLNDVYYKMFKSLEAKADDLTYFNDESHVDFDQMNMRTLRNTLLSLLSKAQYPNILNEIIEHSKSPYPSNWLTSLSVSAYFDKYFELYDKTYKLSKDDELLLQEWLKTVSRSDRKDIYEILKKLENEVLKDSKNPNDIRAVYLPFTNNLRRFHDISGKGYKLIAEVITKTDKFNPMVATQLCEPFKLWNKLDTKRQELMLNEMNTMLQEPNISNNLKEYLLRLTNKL

Chain of Voltage-gated inwardly rectifying potassium channel KCNH2 (Q12809 whole entry): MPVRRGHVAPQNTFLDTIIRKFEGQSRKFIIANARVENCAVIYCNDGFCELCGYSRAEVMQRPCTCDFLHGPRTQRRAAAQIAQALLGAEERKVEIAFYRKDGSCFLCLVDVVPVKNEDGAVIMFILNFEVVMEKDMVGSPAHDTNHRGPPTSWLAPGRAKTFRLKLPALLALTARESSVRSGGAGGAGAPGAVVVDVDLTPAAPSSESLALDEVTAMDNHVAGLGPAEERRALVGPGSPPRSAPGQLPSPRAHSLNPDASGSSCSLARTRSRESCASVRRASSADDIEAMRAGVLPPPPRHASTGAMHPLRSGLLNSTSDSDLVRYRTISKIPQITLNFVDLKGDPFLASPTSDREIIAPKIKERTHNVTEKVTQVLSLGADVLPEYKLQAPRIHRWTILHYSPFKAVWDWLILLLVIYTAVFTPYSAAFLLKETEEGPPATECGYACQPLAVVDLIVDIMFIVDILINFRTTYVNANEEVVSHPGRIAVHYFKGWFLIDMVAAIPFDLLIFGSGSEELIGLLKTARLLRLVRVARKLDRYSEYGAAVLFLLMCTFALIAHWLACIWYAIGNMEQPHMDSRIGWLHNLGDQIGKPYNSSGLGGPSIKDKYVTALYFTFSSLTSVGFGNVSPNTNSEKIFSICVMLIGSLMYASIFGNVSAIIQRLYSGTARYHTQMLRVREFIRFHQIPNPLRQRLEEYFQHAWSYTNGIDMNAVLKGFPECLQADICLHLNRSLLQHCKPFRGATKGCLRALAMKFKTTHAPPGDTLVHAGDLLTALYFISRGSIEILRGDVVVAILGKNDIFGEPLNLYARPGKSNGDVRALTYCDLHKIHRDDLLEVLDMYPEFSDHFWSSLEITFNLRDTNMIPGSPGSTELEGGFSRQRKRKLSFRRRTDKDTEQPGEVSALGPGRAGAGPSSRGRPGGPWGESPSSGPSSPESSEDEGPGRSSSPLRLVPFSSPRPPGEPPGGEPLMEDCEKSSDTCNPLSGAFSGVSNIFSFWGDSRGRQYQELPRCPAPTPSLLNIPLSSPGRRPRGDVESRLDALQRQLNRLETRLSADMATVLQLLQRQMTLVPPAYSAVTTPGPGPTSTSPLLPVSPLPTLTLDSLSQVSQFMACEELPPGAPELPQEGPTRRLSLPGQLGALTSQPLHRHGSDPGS
Chain of ATP-dependent molecular chaperone HSP82 (C4YTQ8 whole entry): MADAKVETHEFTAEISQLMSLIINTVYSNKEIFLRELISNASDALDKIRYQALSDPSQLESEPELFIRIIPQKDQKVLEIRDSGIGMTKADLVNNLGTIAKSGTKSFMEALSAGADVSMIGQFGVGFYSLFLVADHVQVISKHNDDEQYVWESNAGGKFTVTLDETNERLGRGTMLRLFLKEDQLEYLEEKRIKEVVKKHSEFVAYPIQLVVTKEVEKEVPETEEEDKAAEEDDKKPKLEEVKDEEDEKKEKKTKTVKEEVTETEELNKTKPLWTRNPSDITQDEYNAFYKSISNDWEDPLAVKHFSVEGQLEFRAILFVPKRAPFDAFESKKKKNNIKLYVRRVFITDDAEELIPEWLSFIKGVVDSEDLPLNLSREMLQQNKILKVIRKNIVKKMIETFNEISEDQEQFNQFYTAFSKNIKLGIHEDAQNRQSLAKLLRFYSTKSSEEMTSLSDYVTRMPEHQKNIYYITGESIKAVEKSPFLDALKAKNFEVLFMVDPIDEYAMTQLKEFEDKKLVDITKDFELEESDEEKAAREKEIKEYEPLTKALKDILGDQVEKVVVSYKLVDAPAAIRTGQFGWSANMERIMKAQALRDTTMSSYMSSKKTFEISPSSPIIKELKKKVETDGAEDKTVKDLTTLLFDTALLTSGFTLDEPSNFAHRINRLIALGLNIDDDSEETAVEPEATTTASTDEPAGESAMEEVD
Chain of Mu-type opioid receptor (P35372 whole entry): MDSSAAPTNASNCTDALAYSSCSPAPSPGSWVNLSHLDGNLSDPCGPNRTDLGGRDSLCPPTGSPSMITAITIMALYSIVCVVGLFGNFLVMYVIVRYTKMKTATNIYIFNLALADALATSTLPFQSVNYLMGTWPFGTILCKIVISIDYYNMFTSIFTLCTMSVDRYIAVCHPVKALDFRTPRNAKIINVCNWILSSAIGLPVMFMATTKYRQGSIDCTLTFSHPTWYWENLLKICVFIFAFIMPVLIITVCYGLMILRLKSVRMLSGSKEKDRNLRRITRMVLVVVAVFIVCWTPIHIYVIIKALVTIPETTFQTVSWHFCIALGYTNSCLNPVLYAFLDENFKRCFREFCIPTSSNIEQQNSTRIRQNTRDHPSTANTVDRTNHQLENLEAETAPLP
Chain of Paired box protein Pax-8 (Q06710 whole entry): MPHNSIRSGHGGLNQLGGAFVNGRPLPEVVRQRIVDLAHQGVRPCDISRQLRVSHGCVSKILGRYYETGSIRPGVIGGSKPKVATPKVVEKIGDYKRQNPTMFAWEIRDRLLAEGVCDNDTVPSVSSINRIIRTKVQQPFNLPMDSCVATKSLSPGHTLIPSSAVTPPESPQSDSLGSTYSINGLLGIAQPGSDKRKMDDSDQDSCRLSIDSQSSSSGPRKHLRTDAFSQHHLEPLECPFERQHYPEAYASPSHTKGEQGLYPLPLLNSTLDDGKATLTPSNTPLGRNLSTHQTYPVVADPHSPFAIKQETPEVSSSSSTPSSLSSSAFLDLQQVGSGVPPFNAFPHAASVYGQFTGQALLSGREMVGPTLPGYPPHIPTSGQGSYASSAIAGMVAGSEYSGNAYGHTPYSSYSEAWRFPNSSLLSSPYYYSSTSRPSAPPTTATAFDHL
Chain of 5-hydroxytryptamine receptor 2A (P35363 whole entry): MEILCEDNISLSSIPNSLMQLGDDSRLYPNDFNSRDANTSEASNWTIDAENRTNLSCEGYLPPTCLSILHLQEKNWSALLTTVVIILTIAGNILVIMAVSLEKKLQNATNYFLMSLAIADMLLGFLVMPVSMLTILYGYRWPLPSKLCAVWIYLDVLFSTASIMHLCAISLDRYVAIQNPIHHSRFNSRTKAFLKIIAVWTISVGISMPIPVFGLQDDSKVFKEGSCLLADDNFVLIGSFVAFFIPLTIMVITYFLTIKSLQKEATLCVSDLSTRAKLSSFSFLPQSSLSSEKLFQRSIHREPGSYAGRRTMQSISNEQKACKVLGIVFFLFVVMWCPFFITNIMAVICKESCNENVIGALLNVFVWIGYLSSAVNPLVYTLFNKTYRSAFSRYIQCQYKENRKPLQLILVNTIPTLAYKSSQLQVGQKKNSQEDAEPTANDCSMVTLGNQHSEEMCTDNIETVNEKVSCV

SMILES: COc1cc(N)c(Cl)cc1C(=O)OCCN1CCCCC1
- AC50 [1]: 25.1 µM (inconclusive)

SMILES: Cc1cccc(N(Cc2cc(O)nc3ccccc23)C(=O)CCl)c1
- AC50 [2]: 10.5 µM (active)
- IC50 (Vero [3]): > 25 µM (active)
- EC50 (Protein RecA): 1.67 µM (active)
- CC50 (Vero [4]): 5.83 µM (active)
- AC50 (Paired box protein Pax-8): 3.93 µM (active)
- AC50 [5]: 24.9 µM (active)

SMILES: Cc1cc(N/N=C/c2c(O)ccc3ccccc23)nc(-c2ccccc2O)n1
- EC50 [6]: > 160 µM (inactive)
- EC50 [7]: 0.235 µM (active)
- EC50 [8]: 2.07 µM (active)
- EC50 [9]: > 180 µM (inactive)
- EC50 (Streptococcus): 0.425 µM (active)
- AC50 (INS1): 1.69 µM (active)
- EC50 [10]: 38.8 µM (active)

SMILES: CC(C)c1ccccc1 [ISOPROPYLBENZENE]
- AC50 [1]: 1.58 µM (inconclusive)

SMILES: CCCC(=O)Nc1nc(-c2ccc3c(c2)OCCO3)cs1
- AC50 [11]: 8.75 µM (active)

SMILES: OCc1c[nH]cn1
- AC50 [1]: 1.78 µM (inconclusive)

SMILES: O=C(O)c1cc(/N=C/c2c(O)oc3ccccc3c2=O)ccc1O
- AC50 [11]: 32.5 µM (active)

SMILES: CC(Oc1cccnc1[N+](=O)[O-])C(=O)N1CCc2ccccc21 (stereo not given)
- AC50 (Escherichia coli): 22.2 µM (active)

SMILES: COc1cccc(-c2nc(NC(C)C)c3ccccc3n2)c1O
- EC50 [6]: > 160 µM (inactive)
- EC50 [8]: 4.42 µM (active)
- EC50 [9]: > 180 µM (inactive)
- EC50 [10]: 54.5 µM (active)
- EC50 (Mu-type opioid receptor): 92.5 µM (inactive)
- EC50 [12]: 8.51 µM (active)

SMILES: CC(C)OC(=O)Cn1c(=O)oc2ccccc21
- EC50 [13]: > 195 µM (not active)
- AC50 (Escherichia coli): 21.8 µM (active)

SMILES: Cc1cc(-c2ccc(C(=O)O)s2)cnc1N
- IC50 (Aminopeptidase N): 58.9 µM (active)
- AC50 [11]: 4.79 µM (active)

SMILES: CC(=O)Nc1ccc(NS(=O)(=O)c2ccc3ccccc3c2)cc1
- AC50 (Escherichia coli): 27.4 µM (active)
